Source: patent US20020010207A1, “Tropane analogs and methods for inhibition of monoamine transport” (priority 2000, published 2002)
Where “and” joins values, the source holds several entries; their conditions need not be identical. Equal values may be shown once. Read-outs that look alike come from different tables or passages of the source.

How the values were obtained:
[1] = target: T1, serotonin transporter (SERT) (Macaca fascicularis, UniProt A7KAX8); assay: Serotonin transporter assay: inhibition of 3H-citalopram binding, caudate-putamen membranes; parameters: species or system cynomolgus monkey (Macaca fascicularis)
T1 construct: The serotonin transporter is assayed in caudate-putamen membranes; from tissue; host or cells: cynomolgus monkey caudate-putamen membranes
Protocol: It is also important to measure the selectivity of the candidate of the dopamine compared with the serotonin transporter. The serotonin transporter is also detectable in the striatum, the brain region with the highest density of dopamine neurons and in brain regions surrounding the striatum. […] Therefore, a measure of probe affinity of the serotonin transport is conducted by assays paralleling the dopamine transporter assays.
Brain tissue from adult male and female cynomolgus monkeys (Macaca fascicularis) is stored at −85° C. in the primate -brain bank at the New England Regional Primate Research Center. […] Membranes are prepared as described previously. Briefly, the caudate-putamen is homogenized in 10 volumes (w/v) of ice-cold Tris.HCl buffer (50 mM, pH 7.4 at 4° C.) and centrifuged at […] for 20 min in the cold. The resulting pellet is suspended in 40 volumes of buffer, and the entire procedure is repeated twice.
The serotonin transporter is assayed in caudate-putamen membranes using conditions similar to those for the dopamine transporter. […] The 2 h incubation (0-4° C.) is initiated by addition of membranes and terminated by rapid filtration over Whatman GF/B glass fiber filters pre-soaked in 0.1% polyethyleneimine. The filters are washed twice with 5 ml Tris.HCl buffer (50 mM) and the remaining steps are carried out as described above. […] Specific binding is the difference between the two values.
Data are analyzed by EBDA and LIGAND computer software (Elsevier-Biosoft, UK) Final estimates of IC50 and nH values are computed by the EBDA program. Baseline values for the individual drugs are established by computer analysis using the baseline drugs as guide. The LIGAND program provides final parameter estimates of the novel compounds by iterative non-linear curve-fitting and evaluation of one- or two-component binding models.

[2] = target: T2, dopamine transporter (DAT) (Macaca fascicularis, UniProt Q9GJT6); assay: Dopamine transporter assay: inhibition of 3H-WIN35,428 binding, caudate-putamen membranes; parameters: species or system cynomolgus monkey (Macaca fascicularis); settings: for Selectivity DAT V. SERT: ratio of SERT IC50 to DAT IC50
T2 construct: The caudate-putamen will be dissected from coronal slices; from tissue; host or cells: cynomolgus monkey caudate-putamen membranes

[3] = tested on: dopamine transporter (DAT); settings: potency ratio versus (1S)-(+)-cocaine; cited from earlier work
[4] = Table 1, inhibition of 3H-citalopram binding, cynomolgus monkey caudate-putamen, read-out: IC50 (nM SERT)
[5] = Table 1, inhibition of 3H-WIN35,428 binding, cynomolgus monkey caudate-putamen, read-out: IC50 (nM DAT)

T1 sequence (A7KAX8 1-630): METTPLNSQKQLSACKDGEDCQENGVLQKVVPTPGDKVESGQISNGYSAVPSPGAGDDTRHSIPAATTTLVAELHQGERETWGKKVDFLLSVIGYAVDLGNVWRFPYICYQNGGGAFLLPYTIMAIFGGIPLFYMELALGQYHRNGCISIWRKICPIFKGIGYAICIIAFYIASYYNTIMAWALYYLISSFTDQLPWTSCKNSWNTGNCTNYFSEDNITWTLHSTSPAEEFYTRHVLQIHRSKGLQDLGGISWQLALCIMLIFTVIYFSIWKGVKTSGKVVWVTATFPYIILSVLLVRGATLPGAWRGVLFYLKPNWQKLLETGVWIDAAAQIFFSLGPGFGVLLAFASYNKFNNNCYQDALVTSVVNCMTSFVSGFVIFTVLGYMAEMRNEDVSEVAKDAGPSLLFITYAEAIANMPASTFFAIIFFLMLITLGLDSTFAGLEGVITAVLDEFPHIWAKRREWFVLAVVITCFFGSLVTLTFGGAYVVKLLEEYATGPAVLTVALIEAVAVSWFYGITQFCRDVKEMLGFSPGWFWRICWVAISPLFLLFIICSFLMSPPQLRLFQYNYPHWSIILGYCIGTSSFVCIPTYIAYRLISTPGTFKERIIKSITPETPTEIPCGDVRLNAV
T2 sequence (Q9GJT6 whole entry): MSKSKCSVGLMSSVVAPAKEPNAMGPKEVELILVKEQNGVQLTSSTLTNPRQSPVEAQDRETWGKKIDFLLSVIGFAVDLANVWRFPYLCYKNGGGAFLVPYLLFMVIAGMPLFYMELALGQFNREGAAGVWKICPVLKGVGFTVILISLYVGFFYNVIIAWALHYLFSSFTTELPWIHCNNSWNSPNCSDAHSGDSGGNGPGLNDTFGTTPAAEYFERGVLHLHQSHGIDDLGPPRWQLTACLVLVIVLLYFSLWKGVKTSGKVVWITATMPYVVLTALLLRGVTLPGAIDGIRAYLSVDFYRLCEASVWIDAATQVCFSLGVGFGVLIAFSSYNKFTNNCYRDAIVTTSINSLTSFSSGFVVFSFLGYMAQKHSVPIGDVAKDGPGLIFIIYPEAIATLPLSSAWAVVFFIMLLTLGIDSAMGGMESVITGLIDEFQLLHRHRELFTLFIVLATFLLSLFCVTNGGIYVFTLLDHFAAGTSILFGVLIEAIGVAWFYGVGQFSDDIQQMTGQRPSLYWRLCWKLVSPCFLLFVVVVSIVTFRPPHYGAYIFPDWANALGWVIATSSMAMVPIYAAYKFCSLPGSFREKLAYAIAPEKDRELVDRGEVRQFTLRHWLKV

Structure (SMILES) | IC50 [1, 4] [nM] | IC50 [2, 5] [nM] | Selectivity DAT V. SERT ([2]; Table 1) | other results
COC(=O)C1=C(c2ccc(Cl)c(Cl)c2)CC2CCC1N2C (stereo not shown) [Compound 48] |  |  |  | IC50 [1]: 867 nM; IC50 [2]: 1.1 nM; Selectivity DAT V. SERT ([2]; Table 2, 2,3-enes): 790
COC(=O)C1C(c2ccc(Cl)c(Cl)c2)CC2CC(O)C1N2 (stereo not drawn) [Compound 10, 2β-Carbomethoxy-3-(3,4-dichlorophenyl)-7-hydroxy-8-azabicyclo(3.2.1)octane] | 1450 | 1 |  | 
COC(=O)[C@H]1[C@@H](c2ccc(Cl)c(Cl)c2)C[C@@H]2CC[C@H]1N2C [(1R)-3β-(3,4-di-chlorophenyl)-tropane-2β-carboxylic acid methyl ester, reference compound] |  |  | 2 | IC50 [2]: 1.09 nM
COC(=O)C1=C(c2ccc(Cl)c(Cl)c2)CC2CC[C@H]1O2 [Compound 47e, (1R)-2-Carbomethoxy-3-(3,4-dichlorophenyl)-8-oxabicyclo(3.2.1)-2-octene] |  |  |  | IC50 ([1]; read-out: IC50 (nM) SERT): 2120 nM; IC50 ([2]; read-out: IC50 (nM) DAT): 4.6 nM
COC(=O)C1C(c2ccc(Cl)c(Cl)c2)CC2CC(OC)C1N2 (stereo not drawn) [Compound 15, 2β-Carbomethoxy-3-(3,4-dichlorophenyl)-7-methoxy-8-azabicyclo(3.2.1)octane] | 5220 | 92 | 57 | 
COC(=O)C1=C(c2ccc(Cl)c(Cl)c2)CC2CC[C@@H]1O2 [Compound 47f, (1S)-2-Carbomethoxy-3-(3,4-dichlorophenyl)-8-oxabicyclo(3.2.1)-2-octene] |  |  |  | IC50 ([1]; read-out: IC50 (nM) SERT): 46700 nM; Selectivity DAT V. SERT ([2]; Table 2, 2,3-enes): 800 and 802; IC50 ([2]; read-out: IC50 (nM) DAT): 58.2 nM
COC(=O)C1C(c2ccc(Cl)c(Cl)c2)CC2CC(O)C1N2C (stereo not shown) [Compound 11] | 20 | 1 | 20 | 
COC(=O)C1C(c2ccc(Cl)c(Cl)c2)CC2CC(OC)C1N2 (stereo not drawn) [Compound 14, 2β-carbomethoxy-3β-(3,4-dichlorophenyl)-7-methoxy-8-azabicyclo(3.2.1)octane] | 884 | 86 | 10 | 
COC(=O)[C@H]1[C@@H](OC(=O)c2ccccc2)C[C@@H]2CC[C@H]1N2C [(1R)-(−)-cocaine] |  |  |  | binds at the dopamine transporter more potently than the unnatural isomer (1S)-(+)-cocaine [3]: about 200 fold
